Values quoted from earlier work in publication PMC9947563, “Identification of the molecular determinants of antagonist potency in the allosteric binding pocket of human P2X4” (Frontiers in Pharmacology, 2023).
Read-outs that look alike come from different tables or passages of the source.

Columns and labels:
[1] = system: P2X7; set-up: method as in Tian M. et al., 2020; conditions: ref Tian M. et al., 2020; cited from earlier work
[2] = system: hP2X4; conditions: cited from earlier work
[3] = system: P2X1; set-up: method as in Tian M. et al., 2020; conditions: ref Tian M. et al., 2020; cited from earlier work

O=C(Nc1cc(C(F)(F)F)cc(C(F)(F)F)c1)c1cccc(Cl)c1O [Tian-13]
IC50 [1]: 177 ± 11 nM
IC50 ([2]; ref Tian M. et al., 2020, read-out: P2X4 IC50): 48.8 ± 11 nM
IC50 ([2]; ref Tian et al. (2020), read-out: hP2X4 IC50): 49 nM
IC50 [3]: 58 ± 21.9 nM
